Data on 9 compounds can be found in ChEMBL document CHEMBL1201862, “PubChem BioAssay data set” (2004).

What all share (assay): DTP human tumour cell line panel, 48 h
The test system of experiment [1] is ACHN.
The test system of experiment [2] is DLD-1.
Experiment [3] has as its system HCC 2998.
Experiment [4] relates to HCT-116.
The subject of experiment [5] is M14.
Experiment [6] concerns NCI-H23.
Experiment [7] relates to OVCAR-5.
Experiment [8] relates to SF-268.
Experiment [9] concerns SF-539.
For experiment [10], the system named is SK-MEL-2.
Experiment [11] concerns SN12C.
In experiment [12] the test system is SR.
Experiment [13] has as its system U-251.
Experiment [14] relates to UACC-62.
Experiment [15] concerns A549.
Experiment [16] relates to CAKI-1.
The test system of experiment [17] is COLO 205.
Experiment [18] concerns HOP-92.
The subject of experiment [19] is MCF7.
In experiment [20] the test system is SW-620.

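Values below derive from 48-hour exposures of cells grown in 96-well plates, with endpoints linearly interpolated between the two concentrations bracketing the appropriate inhibition level. GI50: concentration for 50% inhibition of growth.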 Calls of active or inactive are those of the source. No stated cut-off is given here; in the data, active = GI50 up to about 1.1 µM and inactive = higher. A value given as a limit tells only on which side of the number the result lay.

As to `Cc1cccc(NC(N)=S)c1`, the GI50 in experiment [1], in experiment [2], in experiment [3], in experiment [4], in experiment [5] and in experiment [6] was > 100 µM (inactive) in each case. The GI50 in experiment [7], in experiment [8], in [9], in [10], in [11] and in experiment [12] was > 100 µM (inactive) in each case. Further, the GI50 in experiment [13] and in [14] was > 100 µM (inactive) in each case.

For `C#CCNC(=O)CCC(N)C(=O)O` (stereo not drawn), the GI50 in [15], in experiment [16], in [17], in [2], in experiment [3] and in experiment [4] was > 100 µM (inactive) throughout. Besides, the GI50 in experiment [18], in experiment [19], in experiment [6], in experiment [7], in experiment [8] and in experiment [9] was > 100 µM (inactive) in each case. The GI50 in experiment [10], in experiment [11], in [20], in [13] and in [14] was > 100 µM (inactive) in each case.

`COc1c2c(c3ccccc3c1O)C1C=CC2C1` (stereo not drawn): the GI50 (as a rule, the concentration that inhibits growth by half) was 19.2 µM (inactive) in [15]; 14.4 µM (inactive) in experiment [1]; 17.1 µM (inactive) in [16]; 16.1 µM (inactive) in experiment [17]; 13.3 µM (inactive) in experiment [2]; 16.1 µM (inactive) in experiment [3]. For the same compound, the GI50 in [4] is 4 µM (inactive); in [5] it was 14.7 µM (inactive); in experiment [6] it was 14.6 µM (inactive); in experiment [7], 18.7 µM (inactive); in experiment [8], 17.7 µM (inactive); in [9] it was 14.6 µM (inactive). Further, the GI50 in experiment [10] is 17.3 µM (inactive); in experiment [11], 15.1 µM (inactive); in [12], 21 µM (inactive); in experiment [20] it was 14.2 µM (inactive); in [13], 11.7 µM (inactive); in experiment [14], 15.4 µM (inactive).

On to `O=C(O)C(Br)Cc1ccc2c(c1)OCO2` (stereo not drawn), for which the GI50 in experiment [15] was > 100 µM (inactive); in experiment [1], > 100 µM (inactive); in [16], > 100 µM (inactive); in experiment [17] it was 55.7 µM (inactive); in [2] it was > 100 µM (inactive); in [3], > 100 µM (inactive). The GI50 in experiment [4], in experiment [18], in experiment [5], in [6], in experiment [7] and in [8] was > 100 µM (inactive) in each case. The GI50 in experiment [9], in experiment [10], in [11], in experiment [12], in experiment [20] and in experiment [13] was > 100 µM (inactive) in each case. Besides, the GI50 in experiment [14] is 62.1 µM (inactive).

In the case of `CC(=O)Nc1ccc(C(=O)N2N=C(C)/C(=C/c3ccc(O)cc3)C2=O)cc1`, the GI50 in experiment [15], in experiment [1], in experiment [16], in experiment [17], in [2] and in experiment [3] was > 100 µM (inactive) throughout. Further, the GI50 in [4], in experiment [6], in experiment [7], in experiment [8], in [9] and in experiment [10] was > 100 µM (inactive) throughout. Besides, the GI50 in experiment [11], in experiment [12], in experiment [20] and in experiment [13] was > 100 µM (inactive) in each case.

For the compound `BrC(/C=N/Nc1nnc(-c2ccccc2)c(-c2ccccc2)n1)C(Br)c1ccccc1` (stereo not drawn), the GI50 is 29.3 µM (inactive) in experiment [15]; 31 µM (inactive) in [1]; 30.7 µM (inactive) in experiment [16]; 33.2 µM (inactive) in experiment [17]; 23.8 µM (inactive) in [2]; 30.3 µM (inactive) in experiment [3]. The GI50 in experiment [18] was 20.3 µM (inactive); in [5] it was 21.6 µM (inactive); in experiment [6] it was 22.2 µM (inactive); in experiment [7] it was 51.5 µM (inactive); in [8] it was 29.2 µM (inactive); in experiment [9], 28.4 µM (inactive). Moreover, the GI50 was 19.9 µM (inactive) in experiment [10]; 48.8 µM (inactive) in experiment [11]; 37.8 µM (inactive) in [20]; 28.2 µM (inactive) in experiment [13]; 18.6 µM (inactive) in experiment [14].

Consider `O=C(O)c1c[nH]c2c(=O)[nH]cnc12`, for which the GI50 in [15], in experiment [1], in experiment [16], in [17], in [2] and in experiment [3] was > 100 µM (inactive) throughout. Further, the GI50 in experiment [4], in experiment [18], in [5], in [6], in experiment [7] and in experiment [8] was > 100 µM (inactive) each time. Further, the GI50 in experiment [10], in experiment [11], in experiment [12], in experiment [20] and in experiment [14] was > 100 µM (inactive) throughout.

Turning to `CC1[C@@]2(O[C@@H]3C=C4C5CCC6Cc7nc8c(nc7C[C@@]6(C)C5C[C@H](O)[C@@]4(C)[C@]13O)CC1CCc3c(cc4c5c3C(O)C[C@H]5[C@@H](C)C3(O4)OC(C)(C)CC3O)[C@]1(C)C8)O[C@@](C)(CO)C[C@@H]2O` (stereo partly drawn), the GI50 was 0.167 µM (active) in [15]; 0.659 µM (active) in experiment [16]; 0.57 µM (active) in experiment [17]; 1.79 µM (inactive) in experiment [2]; 1.91 µM (inactive) in [3]; 0.558 µM (active) in experiment [4]. Also, the GI50 in [19] is 0.21 µM (active); in experiment [7], 0.618 µM (active); in experiment [8], 0.191 µM (active); in [9], 0.173 µM (active); in experiment [10], 0.436 µM (active); in experiment [11] it was 2.3 µM (inactive). Also, the GI50 is 0.49 µM (active) in experiment [20], 0.0759 µM (active) in experiment [13] and 0.169 µM (active) in [14].

Turning to `Nc1ccn(C2OC(CO)C(O)C2O)c(=O)c1` (stereo not drawn), the GI50 was 179 µM (inactive) in experiment [15]; 176 µM (inactive) in [16]; 164 µM (inactive) in [17]; 513 µM (inactive) in experiment [2]; 63.2 µM (inactive) in experiment [3]; 125 µM (inactive) in experiment [4]. The GI50 in experiment [18] was 279 µM (inactive); in [19], 188 µM (inactive); in experiment [6], > 625 µM (inactive); in [8], > 625 µM (inactive); in [9] it was 186 µM (inactive); in experiment [11] it was 108 µM (inactive). Further, the results for the GI50 in experiment [20], in experiment [13] and in [14] were 610 µM (inactive), > 625 µM (inactive) and 337 µM (inactive), respectively.
